Laboratory results as given in paper PMC8625740, “Triterpenoid Saponins from the Cultivar “Green Elf” of Pittosporum tenuifolium” (Molecules, 2021).

Biological target: T1, hTAS1R2 (TAS1R2/TAS1R3 sweet taste receptor) (Homo sapiens, UniProt Q8TE23)
T1 construct: with hTAS1R3 (TAS1R3)
T1 sequence (Q8TE23 20-839): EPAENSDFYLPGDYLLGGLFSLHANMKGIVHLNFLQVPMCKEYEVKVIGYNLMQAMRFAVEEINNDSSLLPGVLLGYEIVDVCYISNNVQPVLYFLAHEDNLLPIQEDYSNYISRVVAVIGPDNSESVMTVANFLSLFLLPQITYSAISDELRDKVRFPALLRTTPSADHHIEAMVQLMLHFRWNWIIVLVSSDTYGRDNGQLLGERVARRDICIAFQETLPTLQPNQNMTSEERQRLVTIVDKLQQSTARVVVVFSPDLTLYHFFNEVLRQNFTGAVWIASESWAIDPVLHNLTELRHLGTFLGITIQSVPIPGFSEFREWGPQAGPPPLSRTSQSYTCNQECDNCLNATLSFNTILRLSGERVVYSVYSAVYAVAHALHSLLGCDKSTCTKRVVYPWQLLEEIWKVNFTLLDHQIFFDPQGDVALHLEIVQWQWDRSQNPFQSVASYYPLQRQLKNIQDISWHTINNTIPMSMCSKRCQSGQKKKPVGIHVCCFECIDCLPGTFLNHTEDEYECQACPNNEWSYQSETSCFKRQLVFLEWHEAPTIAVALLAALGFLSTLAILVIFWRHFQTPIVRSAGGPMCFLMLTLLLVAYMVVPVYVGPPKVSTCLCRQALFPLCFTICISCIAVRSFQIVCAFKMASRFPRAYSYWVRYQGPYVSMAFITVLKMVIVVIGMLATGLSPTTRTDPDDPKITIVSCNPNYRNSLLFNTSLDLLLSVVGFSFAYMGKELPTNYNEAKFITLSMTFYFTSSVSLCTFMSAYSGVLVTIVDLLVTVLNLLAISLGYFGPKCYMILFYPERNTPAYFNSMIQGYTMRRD
T1 sequence (Q7RTX0 21-852 partner): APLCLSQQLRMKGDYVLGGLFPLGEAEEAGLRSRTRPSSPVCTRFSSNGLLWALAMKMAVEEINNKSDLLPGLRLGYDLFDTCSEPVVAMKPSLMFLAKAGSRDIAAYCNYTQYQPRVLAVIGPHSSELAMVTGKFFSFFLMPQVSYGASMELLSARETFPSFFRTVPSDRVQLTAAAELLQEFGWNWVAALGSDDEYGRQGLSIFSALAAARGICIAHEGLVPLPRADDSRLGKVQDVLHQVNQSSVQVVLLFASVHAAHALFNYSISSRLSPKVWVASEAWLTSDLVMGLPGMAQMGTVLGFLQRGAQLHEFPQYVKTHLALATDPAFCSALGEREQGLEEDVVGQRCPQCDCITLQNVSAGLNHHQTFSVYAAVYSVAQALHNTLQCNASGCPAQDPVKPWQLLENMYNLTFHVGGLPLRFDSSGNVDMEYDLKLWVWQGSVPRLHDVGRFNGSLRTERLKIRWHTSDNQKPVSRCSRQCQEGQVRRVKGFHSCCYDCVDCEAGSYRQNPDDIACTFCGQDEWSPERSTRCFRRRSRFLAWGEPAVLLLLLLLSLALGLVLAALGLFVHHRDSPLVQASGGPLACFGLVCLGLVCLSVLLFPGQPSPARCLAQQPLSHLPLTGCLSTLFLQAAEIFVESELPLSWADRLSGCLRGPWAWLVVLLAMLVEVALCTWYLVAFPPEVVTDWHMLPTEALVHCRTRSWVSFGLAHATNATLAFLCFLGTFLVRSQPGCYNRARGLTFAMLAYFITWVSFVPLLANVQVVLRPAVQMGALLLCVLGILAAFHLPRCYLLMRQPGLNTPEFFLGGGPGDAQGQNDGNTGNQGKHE
Test: calcium mobilization (GCaMP5G, FLIPR) in HEK293T-Gα[…]gust44 cells transfected with hTAS1R2 and hTAS1R3, mock-subtracted
Assay type: cell-based

OC[C@H]1O[C@H](O[C@]2(CCl)O[C@H](CCl)[C@@H](O)[C@@H]2O)[C@H](O)[C@@H](O)[C@H]1Cl [sucralose]
EC50: 52 ± 7 µM
